In data set [1] the target is NACHT, LRR and PYD domains-containing protein 3 (Mus musculus) (UniProt Q8R4B8). As to the kind of experiment: Inhibition of NLRP3 inflammasome activation in mouse […] cells assessed as reduction in LPS/ATP-induced IL-1 beta release at 1 uM pretreated with LPS for 4.5 hrs followed by compound addition for 30 mins prior to ATP addition and measured after 30 mins by ELISA relative to control. Type of data set: cell-based. To be noted: J774.A1, time 5.5 hrs. In general terms: ELISA stands for enzyme-linked immunosorbent assay.
NACHT, LRR and PYD domains-containing protein 3 (Mus musculus), sequence (Q8R4B8 whole entry, the tested form may be a part): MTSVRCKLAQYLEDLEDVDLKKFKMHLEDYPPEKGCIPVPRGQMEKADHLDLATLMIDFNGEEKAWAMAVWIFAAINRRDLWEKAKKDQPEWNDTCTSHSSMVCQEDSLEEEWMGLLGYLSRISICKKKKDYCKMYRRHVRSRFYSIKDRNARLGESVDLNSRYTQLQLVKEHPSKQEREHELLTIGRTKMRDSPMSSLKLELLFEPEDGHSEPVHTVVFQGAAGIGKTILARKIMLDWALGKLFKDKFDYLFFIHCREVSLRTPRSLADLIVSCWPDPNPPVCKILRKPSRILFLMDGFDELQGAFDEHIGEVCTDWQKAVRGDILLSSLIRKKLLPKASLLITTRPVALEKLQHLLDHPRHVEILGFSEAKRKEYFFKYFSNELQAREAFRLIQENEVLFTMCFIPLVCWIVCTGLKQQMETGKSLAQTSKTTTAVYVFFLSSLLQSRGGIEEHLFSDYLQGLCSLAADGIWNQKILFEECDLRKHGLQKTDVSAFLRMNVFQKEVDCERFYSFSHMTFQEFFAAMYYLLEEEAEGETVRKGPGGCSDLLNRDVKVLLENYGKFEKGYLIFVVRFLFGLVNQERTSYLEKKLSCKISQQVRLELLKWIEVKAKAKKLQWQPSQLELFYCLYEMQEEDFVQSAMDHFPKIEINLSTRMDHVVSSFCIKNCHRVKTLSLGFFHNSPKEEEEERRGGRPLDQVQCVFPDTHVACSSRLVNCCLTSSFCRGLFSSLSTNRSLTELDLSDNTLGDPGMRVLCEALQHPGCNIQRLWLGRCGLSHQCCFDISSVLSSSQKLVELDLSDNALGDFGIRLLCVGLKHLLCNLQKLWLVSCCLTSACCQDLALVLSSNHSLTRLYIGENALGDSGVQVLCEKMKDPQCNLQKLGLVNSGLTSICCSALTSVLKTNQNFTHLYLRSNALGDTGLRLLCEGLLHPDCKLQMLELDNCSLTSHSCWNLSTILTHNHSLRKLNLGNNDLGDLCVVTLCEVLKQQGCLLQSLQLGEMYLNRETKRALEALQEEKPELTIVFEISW

For data set [2] the target is unchanged. As to the kind of experiment: Inhibition of NLRP3 inflammasome activation in mouse […] cells assessed as reduction in LPS/ATP-induced IL-1 beta release at 10 uM pretreated with LPS for 4.5 hrs followed by compound addition for 30 mins prior to ATP addition and measured after 30 mins by ELISA relative to control. Format: cell-based. To be noted: J774.A1, time 5.5 hrs.

For data set [3], the target named is NACHT, LRR and PYD domains-containing protein 3 (Mus musculus, UniProt Q8R4B8). As to the kind of experiment: Inhibition of NLRP3 inflammasome activation in mouse […] cells assessed as reduction in LPS/ATP-induced IL-1 beta release pretreated with LPS for 4.5 hrs followed by compound addition for 30 mins prior to ATP addition and measured after 30 mins by ELISA. Format: cell-based, J774.A1.
NACHT, LRR and PYD domains-containing protein 3, sequence (Q8R4B8 whole entry, the tested form may be a part): as above

Data set [4] can be described thus: Cytotoxicity against mouse J774.A1 cells. Format: toxicity, cell-based.
Data set [5] in a line: Stability in rat plasma incubated measured upto 48 hrs by HPLC method. Type of data set: ADME, cell-free.
The nature of data set [6]: Stability in rat liver homogenate incubated measured upto 48 hrs by HPLC method. Format: ADME, tissue-based. The settings on record: tissue homogenate.
Another data set deals with J774.A1. As to the kind of experiment: Cytotoxicity against mouse J774.A1 cells at 50 uM. Format: toxicity, cell-based. The settings on record: j774.a1, 5.5 h.

One may read the inhibition as the change of the read-out against control, counted positive when it falls. The IC50 is the concentration that gives 50% inhibition. As for `COCCOc1ccc(Cl)cc1CN(C(=O)Cc1ccsc1)c1ccccc1-c1ccc(NC(=O)[C@@H]2CCC(=O)N2)cc1`, the values for the inhibition in data set [1] and in data set [2] were 54.1% and 84.5%, respectively. The IC50 in data set [3] is 860 nM.
On to `COCCOc1ccc(Cl)cc1CN(C(=O)Cc1ccsc1)c1ccccc1-c1ccc(NC(=O)C2CCCCC2)cc1`, for which the inhibition in data set [1] is -2.37%; in data set [2], 39.5%.
The corresponding values for `CCC(=O)Nc1ccc(-c2ccccc2N(Cc2cc(Cl)ccc2OCCOC)C(=O)c2cc(F)c(F)c(F)c2)cc1` are 52.5% and 77.4%.
The corresponding values for `C#CCCCC(=O)Nc1ccc(-c2ccccc2N(Cc2cc(Cl)ccc2OCCOC)C(=O)Cc2ccsc2)cc1` are -0.88% and 49.6%.
Consider `CCCCCC(=O)Nc1ccc(-c2ccccc2N(Cc2cc(Cl)ccc2OCCOC)C(=O)c2ccc(F)cc2)cc1`, for which the inhibition in data set [1] is 7.12%; in data set [2], 45.4%.
Regarding `CCC(=O)Nc1ccc(-c2ccccc2N(Cc2cc(F)ccc2OCCOC)C(=O)Cc2ccsc2)cc1`, the inhibition in data set [1] was 42.7%; in data set [2] it was 83.8%.
For `CCS(=O)(=O)Nc1ccc(-c2ccccc2N(Cc2cc(Cl)ccc2OCCOC)C(=O)c2ccc(F)cc2)cc1`, in that order: 55.4% and 68.2%.
Turning to `CCC(=O)Nc1ccc(-c2ccccc2N(Cc2cc(Cl)ccc2OCCOC)C(=O)Cc2ccc(F)cc2)cc1`, the figures for the inhibition in data set [1] and in data set [2] were 76.7% and 93.5%, respectively. In data set [3], the half-inhibitory concentration (IC50) was 650 nM.
For the molecule `COCCOc1ccc(Cl)cc1CN(C(=O)Cc1ccsc1)c1ccccc1-c1ccc(NC(=O)/C=C/c2ccccc2)cc1`, the inhibition was 11.9% in data set [1] and 36.7% in data set [2].
For `CCCC(CCC)C(=O)Nc1ccc(-c2ccccc2N(Cc2cc(Cl)ccc2OCCOC)C(=O)Cc2ccsc2)cc1`, in that order: 28.6% and 58.1%.
The corresponding values for `CCNC(=O)Nc1ccc(-c2ccccc2N(Cc2cc(Cl)ccc2OCCOC)C(=O)Cc2ccsc2)cc1` are 56.9% and 84.4%.
As for `CCCS(=O)(=O)Nc1ccc(-c2ccccc2N(Cc2cc(Cl)ccc2OCCOC)C(=O)Cc2ccsc2)cc1`, the inhibition in data set [1] came out at 31.4%; in data set [2], 61.1%.
On to `CCC(=O)Nc1ccc(-c2ccccc2N(Cc2ccc(C(F)(F)F)cc2)C(=O)c2ccc(F)cc2)cc1`, for which the inhibition was determined as 49.7% in data set [1] and 82.1% in data set [2].
`CCC(=O)Nc1ccc(-c2ccccc2N(Cc2cc(Cl)ccc2OCC(C)(F)F)C(=O)Cc2ccsc2)cc1`: the inhibition in data set [1] is 70.1%; in data set [2], 89.9%. Moreover, in data set [3], the IC50 came to 550 nM.
Regarding `CCC(=O)Nc1ccc(-c2ccccc2N(Cc2cc(F)ccc2OCC(C)(F)F)C(=O)Cc2ccsc2)cc1`, the inhibition in data set [1] came to 27.8%; in data set [2], 74.8%.
As for `CC(C)(O)c1coc(S(=O)(=O)NC(=O)Nc2c3c(cc4c2CCC4)CCC3)c1`, the IC50 in data set [3] amounted to 15 nM.
Consider `COCCOc1ccc(Cl)cc1CN(C(=O)Cc1ccsc1)c1ccccc1-c1ccc(NC(=O)C2CC2)cc1`, for which the inhibition was 27.8% in data set [1] and 63.9% in data set [2].
For `CCS(=O)(=O)Nc1ccc(-c2ccccc2N(Cc2cc(Cl)ccc2OCCOC)C(=O)Cc2ccsc2)cc1`, in that order: 27.5% and 42.5%.
`CCCCCC(=O)Nc1ccc(-c2ccccc2N(Cc2cc(Cl)ccc2OCCOC)C(=O)Cc2ccsc2)cc1`: the figures for the inhibition in data set [1] and in data set [2] were 67.5% and 81.8%, respectively. In addition, in data set [3], the IC50 came out at 590 nM.
In the case of `CCC(=O)Nc1ccc(-c2ccccc2N(Cc2cc(Cl)ccc2OCCOC)C(=O)c2ccc(F)c(F)c2)cc1`, the inhibition in data set [1] is 36.1%; in data set [2] it was 27.7%.
The corresponding values for `CCC(=O)Nc1ccc(-c2ccccc2N(Cc2cc(Cl)ccc2OCCOC)C(=O)c2c(F)c(F)c(F)c(F)c2F)cc1` are 39.7% and 23.6%.
For `CCCS(=O)(=O)Nc1ccc(-c2ccccc2N(Cc2cc(Cl)ccc2OCCOC)C(=O)c2ccc(F)cc2)cc1`, in that order: 58.9% and 67.6%.
The corresponding values for `CCNC(=S)Nc1ccc(-c2ccccc2N(Cc2cc(Cl)ccc2OCCOC)C(=O)Cc2ccsc2)cc1` are 29.2% and 78.4%.
`CCC(=O)Nc1ccc(-c2ccccc2N(Cc2cc(Cl)ccc2OCCOC)C(=O)c2ccc(F)cc2)cc1`: the results for the IC50 in data set [4] and in data set [3] were 50000 nM and 340 nM, respectively. Besides, the Stability result in data set [5] and in data set [6] was “Stable” each time.
As for `COCCOc1ccc(Cl)cc1CN(C(=O)Cc1ccsc1)c1ccccc1-c1ccc(NC(=O)OCc2ccccc2)cc1`, the inhibition in data set [1] is 10.6%; in data set [2], 54.4%.
For `C=CC(=O)Nc1ccc(-c2ccccc2N(Cc2cc(Cl)ccc2OCCOC)C(=O)Cc2ccsc2)cc1`, in that order: 24.5% and 72.1%.
Consider `CCC(=O)Nc1ccc(-c2ccccc2N(Cc2ccc(F)cc2)C(=O)c2ccc(F)cc2)cc1`, for which the results for the inhibition in data set [1] and in data set [2] were 40.5% and 39.6%, respectively.
Consider `COCCOc1ccc(Cl)cc1CN(C(=O)Cc1ccsc1)c1ccccc1-c1ccc(NC(C)=O)cc1`, for which the inhibition in data set [1] was determined as 1.56%; in data set [2], 33.9%.
Turning to `CCCCS(=O)(=O)Nc1ccc(-c2ccccc2N(Cc2cc(Cl)ccc2OCCOC)C(=O)Cc2ccsc2)cc1`, the inhibition in data set [1] came to 51.5%; in data set [2], 73.7%.
For `COCCOc1ccc(Cl)cc1CN(C(=O)Cc1ccsc1)c1ccccc1-c1ccc(NC(=O)Cc2ccccc2)cc1`, in that order: 44.5% and 84.3%.
For the molecule `CCC(=O)Nc1ccc(-c2ccccc2N(Cc2cc(Cl)ccc2OCCOC)C(=O)Cc2ccsc2)cc1`, the inhibition is 72.3% in data set [1] and 92.5% in data set [2]. The IC50 in data set [3] was 850 nM.
For the molecule `COCCOc1ccc(Cl)cc1CN(C(=O)Cc1ccsc1)c1ccccc1-c1ccc(NC(=O)CBr)cc1`, the inhibition in data set [1] worked out at 73%; in data set [2], 90.5%. The same molecule came in with an Activity with J774.A1 of more than 97%. Moreover, in data set [3], the IC50 is 310 nM.
As for `CCCC(=O)Nc1ccc(-c2ccccc2N(Cc2cc(Cl)ccc2OCCOC)C(=O)Cc2ccsc2)cc1`, the inhibition in data set [1] amounted to 53.9%; in data set [2] it was 68.2%. Further, the IC50 in data set [3] is 1030 nM.
For `COCCOc1ccc(Cl)cc1CN(C(=O)Cc1ccsc1)c1ccccc1-c1ccc(NC(=O)C(C)C)cc1`, the results for the inhibition in data set [1] and in data set [2] were 11.1% and 85.4%, respectively.
